Test system: CX-1 Human Colon Carcinoma
Assay: Clonogenic dye screening assay, CX-1 cells (IC50)
Format: cell-based
Set-up: CX: unit not given here
Details: for CX (IC50 in the CX-1 cell line): 3 hrs treatment, colonies after 7-10 days, unit from method b117-118; for CV/CX (selectivity, kill ratio): ratio of IC50 in normal CV-1 line to IC50 in carcinoma CX-1 line; for CV/CX: selectivity ratio of IC50 values; for CX: CX-1 cells; for CV/C: selectivity ratio, value of 1 where dye inactive
Description: CX-1 is a cancerous human colon adenocarcinoma cell line. CV-1 is a non-cancerous control, which is a kidney epithelial cell line from an African green monkey. IC50 is the dye concentration at which 50% of the cells are killed. Selectivity or kill ratio is defined as the ratio of […] at IC50 for both CX-1 and CV-1. A ratio with a high number indicates a high selectivity.
The dyes were screened in two cell lines. CX-1 is a human colon adenocarcinoma cell line. CV-1 is a kidney epithelial cell line from an African green monkey. CV-1 was used as a reference because no normal human epithelial cell line is available for clonogenic assay.
In the initial screen, dyes were examined at six different concentrations to generate a dose response curve. An IC50 value, the concentration at which 50% of the cells are killed, was then calculated. Initially, a dye concentration of 1.0 μg/mL was the highest examined for the CX-1 cell line and 0.005 μg/mL was the lower limit. The corresponding limits on the CV-1 cell line were […].
The screening procedure used a response curve that was determined from eight dye concentrations. The upper and lower limits of CX-1 were 0.32 and 0.0015 μg/mL, respectively, and the corresponding revised limits on CV-1 were 3.2 and 0.025 μg/mL. The screening results were reported by assigning an IC50 value to each dye for the CV-1 and CX-1 cell lines. These values will be referred to herein simply as CV and CX. The most desirable result would be to have a dye that was highly toxic to carcinoma cells but nontoxic to ‘normal’ cells. One measure of this type of selectivity is the ratio of the IC50's in the normal cell line to that in the carcinoma line, CV/CX.
Compounds are screened via an in vitro assay. CV-1 and CX-1 cells are seeded into separate assay plates. The plates are treated with varying concentrations of test compounds, rinsed, and colonies allowed to grow. IC50's are determined and drugs evaluated based on their selectivity and toxicity. Assay Steps: • I. Seeding Cells • II. Weighing • III. Preparation of Solution • IV. Treatment • V. Rinsing and Feeding • VI. Fixing • VII. IC50 Determination I. Seeding Cells
The cells should be seeded 16-30 hours before treatment. The media for CV-1 cells is DME+5% calf serum +5% Nuserum. The media for CX-1 cells is RPMI/DME (50/50)+5% calf serum +5% Nuserum.
(c) number of cells based on 2000 CX-1 cells/well and 1000 CV-1 cells/well. NOTE: Always make enough cell suspension for 1 extra plate to allow for volume loss during transfers.
• (a) For CV-1: 256 ug/ml-256 ul of 1 mg/ml stock +744 ul DMSO • (b) For CX-1: 25.6 ug/ml-100 ul of 256 ug/ml+900 ul DMSO IV. Treatment • 1. Each plate is treated with 4 test compounds, one positive control and one negative control. • 2. Serial dilutions of the compounds are made in the following way:
2 multi-well pipetters are used. One is set for 10 ul and one for 200 ul. Each is equipped with 6 tips spaced such that they fit into the 6 rows of a plate. 390 ul of media is added to the first column of each plate. 10 ul each of 4 compound solutions, a positive and a negative control are taken up and put into the first column of wells. The 200 ul pipetter is then placed in the same wells, pipetted up and down 3 times and two 200 ul aliquots are moved to the next column of wells. This column is pipetted up and down 3 times and 400 ul moved to column 3, etc. The final 400 ul excess from column 8 is discarded.
• 3. Label the plates along the front, each row −1 compound. • 4. Incubate the plates at 37° C. for 3 hrs. V. Rinsing • 1. Prepare several bottles of CX-1 and CV-1 media. • 2. Check for precipitate in first column of each plate and note. • 3. Starting with the plates treated first, rinse several plates at a time by aspirating the treatments and refilling each well with 0.5-1.0 ml of the rinse media. Aspirate and refill 2 more times for a total of 3 rinses. • 4.

[1] = Table XXI, oxathiacarbocyanine nitrogen substituents
[2] = listed as drawing 41|Et|5-Cl|5-Cl

SMILES	CX (IC50 in the CX-1 cell line)	CV/CX (selectivity, kill ratio)	further results
CN1/C(=C/C=C/c2[te]c3ccc(O)cc3[n+]2C)[Te]c2ccc(O)cc21 [R=M, X=Te, Z1=5-OH, R2=H, Z2=5-OH]	–	–	CV/CX (Table XVII): 7.6
CN1C(=CC=Cc2[se]c3ccccc3[n+]2C)[Se]c2ccccc21 [Dye B-405]	–	–	CX (Table XV, symmetrical dyes): 0.008; CV/CX (Table XV): 7.5
CCN1/C(=C/C=C/c2sc3cc(C)c(C)cc3[n+]2CC)Oc2ccccc21 [drawing 44|E|5,6-Me|H]	–	>20.0	–
CCN1/C(=C/C(=C/c2[te]c3ccc(OC)cc3[n+]2CC)c2ccccc2)Sc2ccccc21 [R=E, X=S, Z1=5-MeO, R2=Ph, Z2=H]	–	–	CX (Table XVII, benzotellurazole derivatives): 0.3; CV/CX (Table XVII): 26.6
CCN1C(=C/C=C/c2sc3ccccc3[n+]2C)C=Cc2ccccc21 [Dye 2-quinoline]	–	–	CX (Table XVI, unsymmetrical dyes): <0.005; CV/CX (Table XVI): >20.0
CCN1/C(=C/C=C/c2sc3ccccc3[n+]2CC(N)=O)Oc2ccccc21 [R1=CC(═O)N, R2=Et]	–	–	CV/C (Table XXI): >10.0
CCN1/C(=C/C=C/c2sc3ccccc3[n+]2CCC=NNC(N)=S)Oc2ccccc21 [R1=CCC═NNC(═S)N, R2=Et]	–	–	CX [1]: >1.0; CV/C (Table XXI): 1.0
CCN1/C(=C/C=C(\O)c2sc3ccccc3[n+]2CC)Oc2ccccc21 [drawing 39|E|OH|H]	–	10.0	–
CCN1/C(=C/C=C/c2sc3ccccc3[n+]2CC(=O)N2CCOCC2)Oc2ccccc21 [R1=CC(═0)morpholino, R2=Et]	–	–	CX [1]: >1.0; CV/C (Table XXI): 1.0
CCN1/C(=C/C=C/c2sc3ccc(C#N)cc3[n+]2CC)Oc2ccccc21 [drawing 44|E|5-CN|H]	–	>13.3	–
CC[n+]1c(/C(=C/C=C2\Oc3ccccc3N2C)Sc2ccccc2)sc2ccccc21 [drawing 39|M/E|SPh|H]	–	3.0	–
CCN1/C(=C/C=C/c2sc3ccccc3[n+]2CCC(=O)N(c2ccccc2)C(C)C)Oc2ccccc21 [R1=CCC(═O)N(iPr)Ph, R2=Et]	–	–	CX [1]: 0.03; CV/C (Table XXI): 26.7
CCN1/C(=C/C=C/c2sc3ccccc3[n+]2CC)Oc2cc(C)c(C)cc21 [drawing 44|E|H|5,6-Me]	–	>20.0	–
CCN1/C(=C/C=C/c2sc3cc(O)c(O)cc3[n+]2CC)Oc2ccccc21 [drawing 44|E|5,6-OH|H]	–	8.0	–
CN1C(=CC=Cc2[te]c3ccccc3[n+]2C)[Te]c2ccccc21 [Dye B19682]	–	–	CX (Table XV, symmetrical dyes): 0.3; CV/CX (Table XV): 16.7
CCN1/C(=C\C=C\c2[se]c3ccccc3[n+]2CC)Sc2cc(O)c(O)cc21 [drawing 46|Se|S|H|5,6-OH]	0.30 µg/mL	33.3	–
CCN1/C(=C/C(=C/c2oc3ccccc3[n+]2C)SC)Sc2ccc(Cl)cc21.[I-] [Dye D-169]	–	100.0	–
CCN1/C(=C/C=C/c2sc3cc(Cl)ccc3[n+]2CC)Sc2cc(Cl)ccc21.[I-] [Dye D-164]	–	112.5	–

The next lines start with results.

CX (IC50 in the CX-1 cell line)	SMILES	CV/CX (selectivity, kill ratio)	further results
0.07 µg/mL	CC[n+]1c(/C=C(/C=C2\Sc3ccccc3N2C)Sc2ccccc2)sc2ccccc21 [drawing 38|E/M|H|SPh|H]	10.0	–
0.3 µg/mL	CCN1/C(=C/C=C/c2sc3ccccc3[n+]2CCS(=O)(=O)CC)Oc2ccccc21 [drawing 37|CCSO2CC|Et]	>33.3	–
0.09 µg/mL	COc1ccc2c3c(ccc2c1)S/C(=C\C=C\c1sc2ccc4cc(OC)ccc4c2[n+]1C)N3C [drawing 43|M|7-MeO|7-MeO]	35.5	–
0.015 µg/mL	CCN1C(=CC=Cc2sc3ccc(OC)cc3[n+]2CC)Sc2ccc(C)cc21 [drawing 41|Et|5-MeO|5-Me]	13.3	–
0.3 µg/mL	CCN1/C(=C/C=C/c2sc3ccc4ccccc4c3[n+]2CC)Sc2ccc3ccccc3c21 [drawing 43|E|H|H]	6.7	–
0.02 µg/mL	CCN1C(=CC=Cc2sc3ccc(Cl)cc3[n+]2CC)Sc2ccccc21 [drawing 41|Et|5-Cl|H]	40.0	–
>.32 µg/mL	CCOC(=O)c1ccc2c(c1)N(CC)/C(=C/C=C/c1oc3ccc(C(=O)OCC)cc3[n+]1CC)O2 [drawing 45|5-CO2Et|5-CO2Et]	10.0	–
0.08 µg/mL	CCN1/C(=C/C=C/c2oc3cc4c(cc3[n+]2CC)OCO4)Oc2cc3c(cc21)OCO3 [drawing 45|5,6-OCO—|5,6-OCO—]	5.0	–
0.04 µg/mL	CCN1C(=CC=Cc2sc3ccc(Cl)cc3[n+]2CC)Sc2ccc(Cl)cc21 [drawing 41|ET|5-Cl|5-Cl]	40.0	CX (IC50 in the CX-1 cell line) [2]: 0.30 µg/mL; CV/CX (selectivity, kill ratio) [2]: 16.7
0.03 µg/mL	CN1/C(=C/C(=C/c2sc3ccc4ccccc4c3[n+]2C)c2ccccc2)Oc2ccc3ccccc3c21 [drawing 40|M|Ph]	10.0	–
0.3 µg/mL	CCN1/C(=C/C=C/c2sc3ccccc3[n+]2CCC=NNS(=O)(=O)c2ccc(C)cc2)Oc2ccccc21 [drawing 37|CCC═NNSO2Ph-4C|Et]	33.3	–
0.008 µg/mL	CCN1/C(=C/C=C/c2c3ccccc3c3ccccc3[n+]2C)Sc2ccccc21 [Dye D-129]	87.5	CX (Table XVI, unsymmetrical dyes): 0.008; CV/CX (Table XVI): 87.5
0.08 µg/mL	CCC(/C=C1\Oc2ccc3ccccc3c2N1C)=C\c1sc2ccc3ccccc3c2[n+]1C [drawing 40|M|Et]	5.0	–
0.02 µg/mL	CCN1C(=CC=Cc2sc3cc(OC)c(OC)cc3[n+]2CC)Sc2ccccc21 [drawing 41|Et|5,6-MeO|H]	20.0	–
0.16 µg/mL	CCN1C(=CC(=Cc2sc3ccccc3[n+]2CC)c2cccs2)Sc2ccccc21 [drawing 38|E|H|2Thienyl|H]	10.0	–
0.1 µg/mL	CC[n+]1c(/C=C/C=C2\Oc3ccccc3N2CC(F)(F)F)sc2ccccc21 [drawing 37|Et|CC(F)3]	50.0	–
>0.32 µg/mL	CCSC(CCN1/C(=C/C=C/c2sc3ccccc3[n+]2CCC(SCC)SCC)Sc2ccccc21)SCC [drawing 36|CCC(SEt)2|CCC(SEt)2]	<4.1	–
0.3 µg/mL	CCN(CC)C(=O)C[n+]1c(/C=C/C=C2\Oc3ccccc3N2CC)sc2ccccc21 [drawing 37|Cc(═0)N(Et)2|Et]	>33.3	–
0.20 µg/mL	CN1C2=C(CCc3ccccc32)S/C1=C\C=C\c1sc2c([n+]1C)-c1ccccc1CC2 [drawing 43|M|4,5-H|4,5-H]	4.0	–
0.8 µg/mL	CC[n+]1c(/C=C/C=C2\Oc3ccccc3N2CC(=O)c2ccccc2)sc2ccccc21 [drawing 37|Et|C(C═O)Ph]	3.7	–
